{"source": "patent US9545388B2", "about": "“Benzenetricarboxylic acid and methods of use” (GEORGETOWN UNIVERSITY, priority 2012, dated 2017)", "key": {"LC3": {"test_system": "LC3", "test": "immuno-fluorescence and cellular sub-fractionation for LC3 recruitment to mitochondria", "format": "cell-based", "procedure": "ATP (Panel B) and Oxygen consumption levels (Panel C) in cells cultured in 5 mM glucose and mock treated (DMSO, Control) or treated with BTA, or in cells expressing CIC or CIC-DN, 16 hours after treatments. […] The percentages of cells distributed in the G1-, S-, or G2-phases of the cells cycle are shown. Apoptotic cells are identified as the Sub-G1 (SG) population. […] Cells were stained with anti-Flag (green, panels 1 and 4) and anti-LC3 (red, panels 2 and 5) antibodies, and counterstained with DAPI. Merged images are shown in panels 3 and 6. […]\nCells were grown in Dulbecco's modified Eagle's medium (DMEM, 5 mM glucose, with glutamine and pyruvate from Invitrogen; Carlsbad, Calif.) and supplemented with 10% fetal calf serum (FCS). […] The anti-CIC antibody was obtained from Santa Cruz Biotech (Santa Cruz, Calif.), employed at 1:1000 dilution in immuno-blot and at 1:100 in immuno-fluorescence; the anti-mHsp70 and anti-mitofilin antibody were from Novus Biological (Littleton, Colo.) employed at 1:500 in immuno-fluorescence and 1:1000 in immuno-blot; for the LC3 immuno-blot, a mixture of two antibodies was used each at 1:1000 dilution (Novus Biological). […]"}, "CIC": {"target": "T1, CIC (Homo sapiens, UniProt P53007)", "T1 construct": "citrate levels in cells expressing endogenous CIC (nM/well) were assessed in 293T cell lines harboring the pcDNA/TO vector; endogenous in cells; host or cells: 293T cells harbouring the empty pcDNA/TO vector", "T1 sequence (P53007 14-311)": "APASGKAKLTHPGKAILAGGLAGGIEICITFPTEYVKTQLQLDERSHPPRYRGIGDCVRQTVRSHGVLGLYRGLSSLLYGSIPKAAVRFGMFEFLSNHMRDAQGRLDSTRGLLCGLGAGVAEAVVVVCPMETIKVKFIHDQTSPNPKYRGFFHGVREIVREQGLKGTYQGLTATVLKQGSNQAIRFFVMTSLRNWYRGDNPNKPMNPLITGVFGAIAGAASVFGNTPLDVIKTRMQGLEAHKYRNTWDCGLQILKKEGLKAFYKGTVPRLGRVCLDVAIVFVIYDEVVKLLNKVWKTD", "conditions": "in vivo; cited from earlier work"}, "H1299 cells [1]": {"test_system": "H1299 cells", "test": "cell cycle analysis of H1299 cells under glucose restriction", "format": "cell-based, human", "conditions": "glucose restriction (2 mM Glucose), 1 mM BTA", "procedure": "ATP (Panel B) and Oxygen consumption levels (Panel C) in cells cultured in 5 mM glucose and mock treated (DMSO, Control) or treated with BTA, or in cells expressing CIC or CIC-DN, 16 hours after treatments. […] The percentages of cells distributed in the G1-, S-, or G2-phases of the cells cycle are shown. Apoptotic cells are identified as the Sub-G1 (SG) population. […] Cells were stained with anti-Flag (green, panels 1 and 4) and anti-LC3 (red, panels 2 and 5) antibodies, and counterstained with DAPI. Merged images are shown in panels 3 and 6. The results of these immunofluorescence experiments were confirmed with cellular sub-fractionation experiments shown in Panel F. Cytoplasmic (c) and mitochondrial (m) fractions derived from naïve 293T cells (lanes 1,2) or 293T cells expressing CIC (lanes 3,4) or CIC-DN (lanes 5,6) or treated with BTA (lanes 7,8), were probed with anti-CIC, anti-LC3, or anti-mitofilin antibodies, as indicated. The two arrows in the LC3 blot indicate cytosolic (-I) or activated (-II) LC3 forms. […] All images shown were derived from the same autoradiogram at identical times of exposures, but lanes in between samples of interest were eliminated. […] The anti-mitofilin, anti-p62 (employed as a general autophagic marker), anti-CIC, or anti LC3 specific immuno-blots are shown."}, "[2]": {"procedure": "To produce tumor xenografts, 5×10^6 cells were resuspended in PBS and injected subcutaneously in the flanks of female nude mice. For drug treatments, mice were randomized to receive either PBS or a PBS solution of BTA at a concentration 26 mg/kg which was administered via intra-peritoneal route three times a week. Mice were pre-treated twice prior to the inoculation of tumor cell lines. Once detectable tumors started to form, their size was measured with a caliper in three dimensions. Serial measurements were made at two-three day intervals after the identification of the initial cellular mass to determine growth curves in vivo. Tumor volume was calculated using the formula for a prolate spheroid: volume=(4/3)×a^2b, where a is the width and b is the length. All animals were sacrificed when the tumors exceeded 1.5 cm. At the completion of experiments, tumors were excised, weighed and statistical significance of differences in tumor volume were made using two factor repeated measures analysis of variance followed by Fisher's last significant difference test for multiple comparisons. The trial administration of BTA to explore its toxic effects, was conducted on 8 non immuno-compromised mice, randomized in two groups, and injected for five consecutive months. Animals were monitored once a week for the presence of signs of disease, particularly neurological disturbances or weight loss, and they were weighted periodically."}, "mitochondrial mass": {"test_system": "mitochondrial mass", "test": "mitochondrial content by mitofilin and Nonyl-Acridine Orange (NOA)", "format": "cell-based", "procedure": "(§1) The concentration of citrate, lactate, isocitrate, and malate were assessed using specific kits from BioVision (Milpitas, Calif.). Cellular ATP levels were determined via the ATP kit (Promega; Fitchburg, Wis.), while oxygen consumption rates were measured using the BD oxygen biosensor systems (OBS) from BD Bioscience (Franklin Lakes, N.J.). Triplicate samples of 50,000 cells were seeded onto 96-well OBS plates. The number of cells was determined at each time point by sampling cells seeded into side-by-side plates. Fluorescence was measured from the bottom of the well every 24 h and measurements were normalized by subtracting the reading from the same well prior to the addition of the cells (blank). For measurement of reactive oxygen species (ROS), H2DCFDA was used (Invitrogen). Mitochondrial mass was assessed by using mitotracker green (Invitrogen), as per manufacturer instructions, or nonyl acridine orange at a final concentration of 300 nM, followed by analysis by flow cytometry. Mitochondrial membrane potential (MMP) was studied with the JC1 assay kit from Cayman Chemical (Ann Arbor, Mich.)."}, "[3]": {"test_system": "bladder cancer cells derived from T24 cells", "test": "tumor xenograft, bladder cancer cells derived from T24 in nude mice", "format": "in vivo, female athymic balbc/nude mice", "conditions": "BTA 26 mg/kg intra-peritoneal three times a week", "protocol": "(§2) To produce tumor xenografts, 5×10^6 cells were resuspended in PBS and injected subcutaneously in the flanks of female nude mice. […] Mice were pre-treated twice prior to the inoculation of tumor cell lines. Once detectable tumors started to form, their size was measured with a caliper in three dimensions. Serial measurements were made at two-three day intervals after the identification of the initial cellular mass to determine growth curves in vivo. Tumor volume was calculated using the formula for a prolate spheroid: volume=(4/3)×a^2b, where a is the width and b is the length. All animals were sacrificed when the tumors exceeded 1.5 cm. At the completion of experiments, tumors were excised, weighed and statistical significance of differences in tumor volume were made using two factor repeated measures analysis of variance followed by Fisher's last significant difference test for multiple comparisons."}, "[4]": {"test": "cell death by trypan blue exclusion in BTA-treated cells with or without rescue agents", "format": "cell-based"}, "[5]": {"test_system": "lung cancer H1299 cell lines", "test": "tumor xenograft, lung cancer H1299 cells in nude mice", "format": "in vivo, female athymic balbc/nude mice", "conditions": "BTA 26 mg/kg intra-peritoneal three times a week", "protocol": "as §2"}, "MDA-MB-231 cells": {"test_system": "MDA-MB-231 cells", "test": "dose dependent growth inhibition of BTA in MDA-MB-231 cells", "format": "cell-based, human", "conditions": "MBA-MD-231 cells, BTA dose response (FIG. 2B)", "procedure": "Cells were grown in Dulbecco's modified Eagle's medium (DMEM, 5 mM glucose, with glutamine and pyruvate from Invitrogen; Carlsbad, Calif.) and supplemented with 10% fetal calf serum (FCS). Early passage cell lines or frozen pellets were used for screening of CIC expression levels (FIG. 1A). All the reagents for the study of complex I activity were purchased from Sigma-Aldrich (St. Louis, Mo.). The CIC specific shRNA vectors were purchased from Origene Technologies (Rockville, Md.). The vectors expressing human CIC untagged or Flag-Myc epitope tagged were also from Origene. The anti-CIC antibody was obtained from Santa Cruz Biotech (Santa Cruz, Calif.), employed at 1:1000 dilution in immuno-blot and at 1:100 in immuno-fluorescence; the anti-mHsp70 and anti-mitofilin antibody were from Novus Biological (Littleton, Colo.) employed at 1:500 in immuno-fluorescence and 1:1000 in immuno-blot; for the LC3 immuno-blot, a mixture of two antibodies was used each at 1:1000 dilution (Novus Biological). The LAMP-1 antibody was from Abcam (Cambridge, UK). The sequences of primers used were: the human cytochome c oxidase: forward: 5′-[…]-3′ (SEQ. ID NO: 1); Reverse:5′ […]-3′ (SEQ. ID NO: 2). The zebrafish NADH-dehydrogenase: forward: 5′-[…]-3′ (SEQ. ID NO: 3); reverse:5′ […]-3′ (SEQ. ID NO: 4). The zebrafish p53: forward: 5′-ACATGA […]-3′ (SEQ. ID NO: 5); Reverse: 5′ […] 3′ (SEQ. ID NO: 6)."}, "[6]": {"test_system": "glucose-derived fatty acid (FA) synthesis", "test": "metabolism of D-[1,6-13C2] glucose into fatty acids via NMR mass spectrometry", "format": "cell-based", "source_text": "The molecular mechanisms by which CIC affects proliferation were examined. The function of CIC has been primarily linked to glucose-derived fatty acid (FA) synthesis, because of its role in citrate export. Therefore, the metabolism of D-[1,6-^13C2] glucose via NMR mass spectrometry was studied. […] Thus, depletion of lipids unlikely represents the only mechanism by which CIC inhibition affects tumor growth."}, "[7]": {"test_system": "breast cancer MDA-MB-231 cells", "test": "tumor xenograft, breast cancer MDA-MB-231 cells in nude mice", "format": "in vivo, female athymic balbc/nude mice", "conditions": "MDA-MB-231 xenograft, BTA 26 mg/kg intra-peritoneal three times a week, single agent", "protocol": "as §2"}, "H1299 cells [8]": {"test_system": "H1299 cells", "test": "cell viability by trypan blue exclusion in H1299 cells", "format": "cell-based, human", "conditions": "1 mM BTA, trypan blue exclusion (FIG. 2D)", "procedure": "Negative values are due to subtraction of background rates. […] Cell viability was assessed with trypan blue exclusion.\nCells were grown in Dulbecco's modified Eagle's medium (DMEM, 5 mM glucose, with glutamine and pyruvate from Invitrogen; Carlsbad, Calif.) and supplemented with 10% fetal calf serum (FCS). Early passage cell lines or frozen pellets were used for screening of CIC expression levels (FIG. 1A). All the reagents for the study of complex I activity were purchased from Sigma-Aldrich (St. Louis, Mo.). The CIC specific shRNA vectors were purchased from Origene Technologies (Rockville, Md.). The vectors expressing human CIC untagged or Flag-Myc epitope tagged were also from Origene. The anti-CIC antibody was obtained from Santa Cruz Biotech (Santa Cruz, Calif.), employed at 1:1000 dilution in immuno-blot and at 1:100 in immuno-fluorescence; the anti-mHsp70 and anti-mitofilin antibody were from Novus Biological (Littleton, Colo.) employed at 1:500 in immuno-fluorescence and 1:1000 in immuno-blot; for the LC3 immuno-blot, a mixture of two antibodies was used each at 1:1000 dilution (Novus Biological). The LAMP-1 antibody was from Abcam (Cambridge, UK). The sequences of primers used were: the human cytochome c oxidase: forward: 5′-[…]-3′ (SEQ. ID NO: 1); Reverse:5′ […]-3′ (SEQ. ID NO: 2). […]"}, "lactate": {"test_system": "lactate", "test": "lactate levels in treated cells", "format": "cell-based", "procedure": "as §1"}}, "data": [{"smiles": "O=C(O)c1cccc(C(=O)O)c1C(=O)O", "note": "[BTA, 1,2,3-benzenetricarboxylic acid]", "values": [{"measurement": "LC3-II in the mitochondrial fraction", "setting": "LC3; 293T cells treated with BTA, sub-fractionation immuno-blot (FIG. 5F lane 8)", "value": "enrichment of LC3-II in the mitochondria"}, {"measurement": "recruitment of active-lipidated LC3 and lysosomes to the mitochondria", "setting": "LC3; cells treated with BTA", "value": "recruitment of the autophagic machinery"}, {"measurement": "CIC-dependent transport of citrate", "setting": "CIC", "value": "suppresses CIC-dependent transport of citrate"}, {"measurement": "apoptosis (Sub-G1 population)", "setting": "H1299 cells [1]", "value": "induction of apoptosis"}, {"measurement": "evidence of illness or toxicity", "setting": "[2]; mouse, in vivo", "value": "no evidence of illness or toxicity"}, {"measurement": "evidence of toxicity", "setting": "[2]; mouse, in vivo", "value": "without showing any evidence of toxicity"}, {"measurement": "body weight", "setting": "[2]; non immuno-compromised mice, BTA twice a week for five consecutive months", "value": "small but statistically significant reduction of the body weight"}, {"measurement": "mitochondrial quantity (mitofilin)", "setting": "mitochondrial mass; time course following BTA treatment (FIG. 5G)", "value": "reduction of mitochondrial quantity as a function of time"}, {"measurement": "anti-cancer activity (tumor volume)", "setting": "[3]", "value": "exhibited anti-cancer activity"}, {"measurement": "viability of treated cells", "setting": "[4]; cells treated with BTA", "value": "loss of viability"}, {"measurement": "anti-cancer activity (tumor volume)", "setting": "[5]", "value": "exhibited anti-cancer activity"}, {"measurement": "proliferation rates", "setting": "MDA-MB-231 cells", "value": "decreased proliferation rates in a dose-dependent manner"}, {"measurement": "total FA levels", "setting": "[6]; 16 hours after BTA treatment", "value": "modestly reduced"}, {"measurement": "ability of cells to convert glucose into FA", "setting": "[6]; D-[1,6-13C2] glucose", "value": "severely reduced the ability of cells to convert glucose into FA"}, {"measurement": "total FA levels", "setting": "[6]; later time points after BTA treatment", "value": "increased"}, {"measurement": "anti-cancer activity (tumor volume)", "setting": "[7]", "value": "exhibited anti-cancer activity"}, {"measurement": "cell growth / viability", "setting": "H1299 cells [8]", "value": "growth inhibition"}, {"measurement": "levels of glucose-derived lactate", "setting": "lactate", "value": "enhanced the levels of glucose-derived lactate"}]}, {"smiles": "Cn1cnc(N)c2ncnc1-2", "note": "[Compound 3MA, 3-Methyladenine, reference compound]", "values": [{"measurement": "mitochondrial amount (NOA) in BTA-treated cells", "setting": "mitochondrial mass; 5 mM 3MA added to BTA-treated cells (FIG. 6A)", "value": "restored mitochondrial amount"}]}, {"smiles": "CC(=O)N[C@@H](CS)C(=O)O", "note": "[NAC, N-acetyl-cysteine]", "values": [{"measurement": "prevention of loss of viability in cells treated with BTA", "setting": "[4]; 5 mM methyl-pyruvate or 2 mM NAC added to BTA-treated cells (FIG. 5A)", "value": "partially prevented loss of viability"}]}, {"smiles": "CCCCCCCCCCCCCCCC(=O)O", "note": "[palmitic acid]", "values": [{"measurement": "rescue of proliferation of BTA-treated cells", "setting": "[4]; incubation of BTA-treated cells with palmitic acid", "value": "not sufficient to rescue proliferation"}]}]}
